# Laboratory results taken from US5594022A, “Tachykinin antagonists” (Warner-Lambert Company, priority 1994, dated 1997).
# Entries after “also recorded” stand apart in the source; their conditions may differ.
# Assays:
# [1] = test system: NK1 receptor; conditions: literature; cited from earlier work
# [2] = test system: NK2 receptors; conditions: literature; cited from earlier work
# [3] = test system: NK3 receptors; conditions: literature; cited from earlier work
# [4] = target: T1, NK1 receptor (Cavia porcellus, UniProt P30547); assay: Antagonism of substance-P methylester in a number of in vitro NK1 preparations; parameters: species or system guinea pig
# T1 construct: guinea pig cerebral cortex membranes; from tissue; host or cells: guinea pig cerebral cortex membranes
# Excerpt: Therefore, it could be of use in therapeutic disorders where attenuation of the NK1 receptor response is an appropriate form of intervention.
# [5] = target: T2, NK1 receptor (Guinea Pig Ileum) (Cavia porcellus, UniProt P30547); assay: NK1 antagonist activity, guinea pig ileum; conditions: read-out: NK1 Antagonist Activity pkB/pA2, Guinea Pig Ileum (converted)
# T2 construct: Ileum; from tissue; host or cells: guinea pig ileum
# [6] = target: T1, NK1 receptor; assay: In vitro NK1 receptor binding ([125I] Bolton Hunter Substance-P, guinea pig cerebral cortex membranes); conditions: Binding IC50, In Vitro NK1 Receptor Binding, [125I-BH]Substance-P 0.1 nM
# Protocol: The compounds of the invention were also evaluated in three tachykinin binding assays.
# [7] = target: T3, NK1 receptor (Guinea Pig Trachea) (Cavia porcellus, UniProt P30547); assay: NK1 antagonist activity, guinea pig trachea; conditions: read-out: NK1 Antagonist Activity pkB/pA2, Guinea Pig Trachea (converted)
# T3 construct: Trachea; from tissue; host or cells: guinea pig trachea
# T3 sequence (P30547 whole entry): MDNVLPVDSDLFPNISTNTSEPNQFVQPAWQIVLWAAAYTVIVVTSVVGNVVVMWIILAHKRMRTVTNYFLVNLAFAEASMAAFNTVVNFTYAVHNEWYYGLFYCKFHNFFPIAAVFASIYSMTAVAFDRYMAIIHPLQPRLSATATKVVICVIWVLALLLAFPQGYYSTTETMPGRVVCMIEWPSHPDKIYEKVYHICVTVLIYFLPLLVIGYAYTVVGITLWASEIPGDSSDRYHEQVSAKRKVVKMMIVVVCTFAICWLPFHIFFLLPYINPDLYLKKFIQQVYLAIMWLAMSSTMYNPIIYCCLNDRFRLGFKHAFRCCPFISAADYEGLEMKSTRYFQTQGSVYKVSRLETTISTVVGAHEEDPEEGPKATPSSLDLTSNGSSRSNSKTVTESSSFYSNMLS
# T1 sequence (P30547 whole entry): as above
# T2 sequence (P30547 whole entry): as above
compound,measurement,setting,value
CN(Cc1ccccc1)C(=O)[C@H](Cc1ccc2ccccc2c1)NC(=O)[C@@H]1C[C@@H](O)CN1C(=O)c1cn(C)c2ccccc12 [FK 888],"NK1 receptor affinity or activity, in words",[1],high affinity for the NK1 receptor
"COc1ccccc1CN[C@H]1C2CCN(CC2)[C@H]1C(c1ccccc1)c1ccccc1 [CP-96,345]","NK1 receptor affinity or activity, in words",[1],antagonists at the NK1 receptor
NKA: mammalian tachykinin neuropeptide,"NK2 receptor affinity or selectivity, in words",[2],bind preferentially to NK2
NKB: mammalian tachykinin neuropeptide,"NK3 receptor binding, in words",[3],bind preferentially
CC(=O)NC1(c2ccccc2)CCN(CC[C@H](CN(C)C(=O)c2ccccc2)c2ccc(Cl)c(Cl)c2)CC1 [SR 48969],"NK2 receptor affinity or selectivity, in words",[2],high affinity and selectivity for NK2 receptors
COc1ccccc1CC(=N)N1C[C@@H]2C(=O)CCC(c3ccccc3)(c3ccccc3)[C@@H]2C1 [RP 67580],"NK1 receptor affinity or activity, in words",[1],antagonists at the NK1 receptor
C[C@H](NC(=O)[C@@](C)(Cc1c[nH]c2ccccc12)NC(=O)OCc1ccccc1)c1ccccc1 [Example 15],"NK1 receptor antagonism, in words",[4]; listed as Ex. 15,antagonist of the NK1 receptor; also recorded: tachykinin NK1 receptor antagonist
same,Kb,[4]; read-out: pKB against substance-P methylester on these tissues (converted),~10 nM
same,Kb,[5],15.8 nM
same,IC50,[6],36 nM
same,Kb,[7],39.8 nM
